Source: patent EP0362382A1, “METHOD OF STERILIZING PLANT POLLEN” (VSESOJUZNY NAUCHNO-ISSLEDOVATELSKY INST. SELSKOKHOZYAISTV. …, priority 1988, dated 1989)

Assays:
Format in all cases: in vivo
diploidem Roggen = assay: Field test of gametocidal activity (sterilisation of anthers), diploid rye; conditions: Sorte Gibrid 1861/79; V. und VI. Periode der Organogenese; 1%ige wäßrige Emulsion; 8 kg/ha
Description: (§1) Die gametozide Aktivitat der erfindungsgemäßen Sterilisationsmittel war im Feldversuch in verschiedenen bodenklimatischen Zonen mit Teilstücken von 10 m^2 Größe in drei- bis viermaliger Wiederholung festgestellt. Jedes Sterilisationsmittel wurde mindenstens 5 Jahre lang geprüft.
(§2) Die Entwicklung der Perioden der Organogenese wird zytologisch überwacht. Die Behandlung von Pflanzen mit dem Sterilisationsmittel erfolgt am Anfang der fünften Periode der Organogenese nach Kupermann.
(§3) Mit dem Ährenschieben verwirklicht man die Isolierung von Hauptähren und anderen Stockwerken in Pergamentbeuteln. Bei Weizen und Tritikale werden Einzelisolatoren benutzt. Bei Roggen schließt man je Ähre 5 bis 7 verschiedene nebeneinander befindliche Pflanzen unter einen gemeinsamen Isolator ein. Bei Hierse wird jede Rispe getrennt isoliert. Der Sterilitätsprozentsatz (X) für Weizen, Roggen, Tritikale und Hirse wird nach der Formel [formula] ermittelt.
(§4) Die Kornzahl in nicht isolierten Ähren von Kontrollpflanzen wird bedingt für 100 % Ansetzen bei freier Bestäubung angenommen.
(§5) Um zuverlässige Angaben zu erhalten, verwendet man 20 bis 25 Isolatoren jeder Wiederholung für Weizen und Tritikale, 10 .bis 15 Isolatoren jeder Wiederholung für Roggen und Hirse.
Pflanzen von diploidem Roggen Sorte Wosohod 2 werden in der V. Periode der Organogenese (nach Kupermann) mit 1%iger wäßriger Emulsion von Bis(di-n-butyläther) der δ, δ' -Thiodivaleriansäure, 4-Krboxybutyldezylsulfid, Natriumsalz der δ, δ' -Thiodivaleriansäure, Bis(2-äthylhexyläther) der δ, δ' -Thiodivaleriansäure, δ, δ' -Sulfonyldivaleriansäure, Natriumsalz der δ, δ'-Sulfonyldivaleriansäure, Kaliumsalz der δ, δ' -Sulfonyldivaleriansäure behandelt. Die Emulsion enthält 0,1 Masse% […] mit 12 bis 14 Kohlenstoffatomen und 0,01 Masse% Tetrahydrofuran. Der Verbrauch an Präparat beträgt 6 kg/ha. Als Kontrolle dienen Pflanzen, behandelt mit einem Verdünner ohne Sterilisationsmittel.
Pflanzen von diploidem Roggen Sorte Gibrid 1861/79 werden in der V. und VI. Periode der Organogenese (nach Kupermann) mit 1%iger wäßriger Emulsion von Bis(di-n-butyläther) der δ, δ' -Thiodivaleriansäure, δ, δ' -Thiodivaleriansäure, Natriumsalz der δ δ' -Thiodivaleriansäure, 4-Karboxybutyldezylsulfid, δ , δ' -Sulfonyldivaleriansäure, Kaliumsalz der δ, δ' -Sulfonyldivaleriansäuleriansäure, Kaliumalz der δ' -Sulfonyldivaleriansäure, Bis(2-äthylhexyläther) der δ, δ' -Thiodivaleriansäure behandelt. Die Emulsion enthält 0,1 Masse% Kalziumalkylbenzolsulfonat mit 12 bis 14 Kohlenstoffatomen und 0,01 Masse% Dimethylformamid. Der Verbrauch an Präparat beträgt 8 kg/ha. Als Kontrolle dienen Pflanzen, behandelt mit einem Verdünner ohne Sterilisationsmittel. Die Prüfergebnisse sind in der Tabelle 10 angegeben.

tetraploidem Roggen = assay: Field test of gametocidal activity (sterilisation of anthers), tetraploid rye; conditions: Sorte Belta; V. Periode der Organogenese; 1%ige wäßrige Emulsion; 6 kg/ha
Description: as §1, §2, §3, §4, §5
Pflanzen von tetraploidem Roggen Sorte Belta werden in der V. Periode der Organogenese (nach Kupermann) mit 1%iger wäßriger Emulsion von d, δ' -Thiodivaleriansäure, Natriumsalz der δ, δ' -Thiodivaleriansäure, δ, δ' -Sulfonylvaleriansäure, Natriumsalz der δ, δ' -Sulfonyldivaleriansäure, Kaliumsalz der d, δ' -Sulfonyldivaleriansäure, Bis(di-n-butyläther) der δ, δ' -Thiodivaleriansäure, Bis(2-Äthylhexyläther) der δ, δ'-Thiodivaleriansäure, 4-Karboxybutyldezylsulfid behandelt. Die Emulsion enthält 0,1 Masse% Kalziumalkylbenzolaulfonat und 0,01 Masse% Dimethylsulfoxid. Der Verbrauch an Präparat beträgt 6 kg/ha. Als Kontrolle dienen Pflanzen, behandelt mit einem Verdünner ohne Sterilisationsmittel. Die Prüfergebnisse sind in der Tabelle 11 angegeben. […] Periode der Organogese erhalten.

Hirse = assay: Field test of gametocidal activity (sterilisation of anthers), millet; conditions: V. Periode der Organogenese, 1%ige wäßrige Emulsion
Description: as §1, §2, §3, §4, §5
Pflanzen der Hirse Sorte Mironowskoe 94 werden in der V. Periode der Organogenese (nach Kupermann) mit 1%iger wäßriger Emulsion von 4-Karboxybutyldezylsulfid, δ, δ' -Sulfonyldivaleriansäure, Bis(2-äthylhexyläther) der δ, δ' -Thiodivaleriansäure behandelt. Die Emulsion enthält 0,1 Masse% Kalziumalkylbenzolsulfonat mit 12 bis 14 Kohlenstoffatomen und 0,01 Masse% Dodezylsulfat. Der Verbrauch an Präparat beträgt 10 kg/ha. Als Kontrolle dienen Pflanzen, behandelt mit einem Verdünner ohne Sterilieationsmittel. Die Prüfergebnisse sind in der Tabelle 14 angegeben. […] Periode der Organogenese erhalten.
Pflanzen der Hirse Sorte K9009, Poltawskaja oblast (Poltawaer Gebiet) werden in der V.Periode der Organogenese (nach Kupermann) mit 1%iger wäßriger Emulsion von δ, δ' Thiodivaleriansäure, Natriumsälz der δ, δ'- -Thiodivaleriansäure, δ, δ' -Sulfonyldivaleriansäure, Bis([…]) der d, δ' -Thiodivaleriansäure, 4-Karboxybutyldezylsulfid behandelt. Die Emulsion enthält 0,1 Masse% Kalziumalkylbenzolsulfonat mit 12 bis 14 Kohlenstoffatomen und 0,01 Masse% Tetrahydrofuran, Der Verbrauch an Präparat beträgt 6 kg/ha. Als Kontrolle dienen . Pflanzen, behandelt mit einem Verdünner ohne Sterilisationsmittel. Die Prüfergebnisse sind in der Tabelle 15 angegeben. […] Periode der Organogenese erhalten.
Pflanzen der Hirse Sorte K-9693 Kormowoe 1 werden in der V. Periode der Organogenese (nach Kupermann) mit l%iger wäßriger Emulsion von Bis(di-n-butyläther) der δ, δ' -Thiodivaleriansäure, Natriumsalz der δ, δ' -Sulfonyldivaleriansäure behandelt. Der Verbrauch an Präparat beträgt 6 kg/ha. Als Kontrolle dienen Pflanzen, behandelt mit einem Verdünner ohne Sterilisationsmittel. Die Prüfergebnisse sind in der Tabelle 16 angegeben. […] Periode der Organogenese erhalten.

[1] = Sorte K9009, Poltawskaja oblast, 6 kg/ha
[2] = Sorte K-9693 Kormowoe 1, 6 kg/ha

## O=C(O)CCCCS(=O)(=O)CCCCC(=O)O [Beispiel 48, δ , δ' -Sulfonyldivaleriansäure]
Diploidem Roggen
  Anzahl von Körnern der Ähre bei freier Bestäubung: 54,7
  Anzahl von Körnern der Ähre im Isolator: 0,0
  Prozentsatz der Sterilität: 100,0%
  Prozentsatz des Ansetzens von Körnern bei freier Bestäubung: 87,1%

## O=C(O)CCCCS(=O)(=O)CCCCC(=O)O [Beispiel 49, Kaliumsalz der δ, δ' -Sulfonyldivaleriansäuleriansäure]
Diploidem Roggen
  Anzahl von Körnern der Ähre bei freier Bestäubung: 57,0
  Anzahl von Körnern der Ähre im Isolator: 0,0
  Prozentsatz der Sterilität: 100,0%
  Prozentsatz des Ansetzens von Körnern bei freier Bestäubung: 90,8%

## CCCCC(CC)COC(=O)CCCCSCCCCC(=O)OCC(CC)CCCC (stereo not drawn) [Beispiel 50, Bis(2-äthylhexyläther) der δ, δ' -Thiodivaleriansäure]
Diploidem Roggen
  Anzahl von Körnern der Ähre bei freier Bestäubung: 53,2
  Anzahl von Körnern der Ähre im Isolator: 0,0
  Prozentsatz der Sterilität: 100,0%
  Prozentsatz des Ansetzens von Körnern bei freier Bestäubung: 84,7%

## O=C(O)CCCCSCCCCC(=O)O [Beispiel 51, d, δ' -Thiodivaleriansäure]
Tetraploidem Roggen
  Anzahl von Körnern der Ähre bei freier Bestäubung: 32,9
  Anzahl von Körnern der Ähre im Isolator: 0,3
  Prozentsatz der Sterilität: 99,3%
  Prozentsatz des Ansetzens von Körnern bei freier Bestäubung: 74,4%

## O=C(O)CCCCSCCCCC(=O)O [Beispiel 52, Natriumsalz der δ, δ' -Thiodivaleriansäure]
Tetraploidem Roggen
  Anzahl von Körnern der Ähre bei freier Bestäubung: 40,6
  Anzahl von Körnern der Ähre im Isolator: 0,1
  Prozentsatz der Sterilität: 99,8%
  Prozentsatz des Ansetzens von Körnern bei freier Bestäubung: 91,8%

## O=C(O)CCCCS(=O)(=O)CCCCC(=O)O [Beispiel 53, δ, δ' -Sulfonylvaleriansäure]
Tetraploidem Roggen
  Anzahl von Körnern der Ähre bei freier Bestäubung: 39,0
  Anzahl von Körnern der Ähre im Isolator: 0,0
  Prozentsatz der Sterilität: 100,0%
  Prozentsatz des Ansetzens von Körnern bei freier Bestäubung: 88,2%

## O=C(O)CCCCS(=O)(=O)CCCCC(=O)O [Beispiel 54, Natriumsalz der δ, δ' -Sulfonyldivaleriansäure]
Tetraploidem Roggen
  Anzahl von Körnern der Ähre bei freier Bestäubung: 34,6
  Anzahl von Körnern der Ähre im Isolator: 0,0
  Prozentsatz der Sterilität: 100,0%
  Prozentsatz des Ansetzens von Körnern bei freier Bestäubung: 78,2%

## O=C(O)CCCCS(=O)(=O)CCCCC(=O)O [Beispiel 55, Kaliumsalz der d, δ' -Sulfonyldivaleriansäure]
Tetraploidem Roggen
  Anzahl von Körnern der Ähre bei freier Bestäubung: 34,0
  Anzahl von Körnern der Ähre im Isolator: 0,0
  Prozentsatz der Sterilität: 100,0%
  Prozentsatz des Ansetzens von Körnern bei freier Bestäubung: 76,9%

## CCCCOC(=O)CCCCSCCCCC(=O)OCCCC [Beispiel 56, Bis(di-n-butyläther) der δ, δ' -Thiodivaleriansäure]
Tetraploidem Roggen
  Anzahl von Körnern der Ähre bei freier Bestäubung: 38,2
  Anzahl von Körnern der Ähre im Isolator: 0,0
  Prozentsatz der Sterilität: 100,0%
  Prozentsatz des Ansetzens von Körnern bei freier Bestäubung: 86,7%

## CCCCC(CC)COC(=O)CCCCSCCCCC(=O)OCC(CC)CCCC (stereo not drawn) [Beispiel 57, Bis(2-Äthylhexyläther) der δ, δ'-Thiodivaleriansäure]
Tetraploidem Roggen
  Anzahl von Körnern der Ähre bei freier Bestäubung: 42,7
  Anzahl von Körnern der Ähre im Isolator: 0,0
  Prozentsatz der Sterilität: 100,0%
  Prozentsatz des Ansetzens von Körnern bei freier Bestäubung: 96,6%

## CCCCCCCCCCSCCCCC(=O)O [Beispiel 58, 4-Karboxybutyldezylsulfid]
Tetraploidem Roggen
  Anzahl von Körnern der Ähre bei freier Bestäubung: 40,3
  Anzahl von Körnern der Ähre im Isolator: 0,0
  Prozentsatz der Sterilität: 100,0%
  Prozentsatz des Ansetzens von Körnern bei freier Bestäubung: 91,2%

## CCCCCCCCCCSCCCCC(=O)O [Beispiel 65, 4-Karboxybutyldezylsulfid]
Hirse; Sorte Mironowskoe 94, 10 kg/ha
  Anzahl von Körnern der Rispe bei freier Bestäubung: 323,7
  Anzahl von Körnern der Rispe im Isolator: 0,0
  Prozentsatz der Sterilität: 100,0%
  Prozentsatz des Ansetzens von Körnern bei freier Bestäubung: 88,3%

## O=C(O)CCCCS(=O)(=O)CCCCC(=O)O [Beispiel 66, δ, δ' -Sulfonyldivaleriansäure]
Hirse; Sorte Mironowskoe 94, 10 kg/ha
  Anzahl von Körnern der Rispe bei freier Bestäubung: 336,8
  Anzahl von Körnern der Rispe im Isolator: 0,0
  Prozentsatz der Sterilität: 100,0%
  Prozentsatz des Ansetzens von Körnern bei freier Bestäubung: 91,9%

## CCCCC(CC)COC(=O)CCCCSCCCCC(=O)OCC(CC)CCCC (stereo not drawn) [Beispiel 67, Bis(2-äthylhexyläther) der δ, δ' -Thiodivaleriansäure]
Hirse; Sorte Mironowskoe 94, 10 kg/ha
  Anzahl von Körnern der Rispe bei freier Bestäubung: 312,8
  Anzahl von Körnern der Rispe im Isolator: 0,0
  Prozentsatz der Sterilität: 100,0%
  Prozentsatz des Ansetzens von Körnern bei freier Bestäubung: 85,3%

## O=C(O)CCCCSCCCCC(=O)O [Beispiel 68, δ, δ' Thiodivaleriansäure]
Hirse; [1]
  Anzahl von Körnern der Rispe bei freier Bestäubung: 101,4
  Anzahl von Körnern der Rispe im Isolator: 0,0
  Prozentsatz der Sterilität: 100,0%
  Prozentsatz des Ansetzens von Körnern bei freier Bestäubung: 78,1%

## O=C([O-])CCCCSCCCCC(=O)[O-].[Na+].[Na+] [Beispiel 69, Natriumsälz der δ, δ'- -Thiodivaleriansäure]
Hirse; [1]
  Anzahl von Körnern der Rispe bei freier Bestäubung: 105,1
  Anzahl von Körnern der Rispe im Isolator: 0,0
  Prozentsatz der Sterilität: 100,0%
  Prozentsatz des Ansetzens von Körnern bei freier Bestäubung: 81,2%

## O=C(O)CCCCS(=O)(=O)CCCCC(=O)O [Beispiel 70, δ, δ' -Sulfonyldivaleriansäure]
Hirse; [1]
  Anzahl von Körnern der Rispe bei freier Bestäubung: 77,1
  Anzahl von Körnern der Rispe im Isolator: 0,0
  Prozentsatz der Sterilität: 100,0%
  Prozentsatz des Ansetzens von Körnern bei freier Bestäubung: 60,0%

## CCOCCOC(=O)CCCCSCCCCC(=O)OCCOCC [Beispiel 71, Bis(2-äthylglykoläther) der d, δ' -Thiodivaleriansäure]
Hirse; [1]
  Anzahl von Körnern der Rispe bei freier Bestäubung: 112,0
  Anzahl von Körnern der Rispe im Isolator: 0,0
  Prozentsatz der Sterilität: 100,0%
  Prozentsatz des Ansetzens von Körnern bei freier Bestäubung: 86,6%

## CCCCCCCCCCSCCCCC(=O)O [Beispiel 72, 4-Karboxybutyldezylsulfid]
Hirse; [1]
  Anzahl von Körnern der Rispe bei freier Bestäubung: 100,7
  Anzahl von Körnern der Rispe im Isolator: 0,0
  Prozentsatz der Sterilität: 100,0%
  Prozentsatz des Ansetzens von Körnern bei freier Bestäubung: 77,8%

## O=C([O-])CCCCS(=O)(=O)CCCCC(=O)[O-].[Na+].[Na+] [Beispiel 74, Natriumsalz der δ, δ' -Sulfonyldivaleriansäure]
Hirse; [2]
  Anzahl von Körnern der Rispe bei freier Bestäubung: 103,5
  Anzahl von Körnern der Rispe im Isolator: 0,0
  Prozentsatz der Sterilität: 100,0%
  Prozentsatz des Ansetzens von Körnern bei freier Bestäubung: 70,5%

## Bis(di-n-butyläther) der δ, δ' -Thiodivaleriansäure [Beispiel 73]
Hirse; [2]
  Anzahl von Körnern der Rispe bei freier Bestäubung: 122,1
  Anzahl von Körnern der Rispe im Isolator: 0,0
  Prozentsatz der Sterilität: 100,0%
  Prozentsatz des Ansetzens von Körnern bei freier Bestäubung: 83,2%
